Experimental data taken from article PMC8989888, “Development of optimized drug-like small molecule inhibitors of the SARS-CoV-2 3CL protease for treatment of COVID-19” (Nature Communications, 2022).
pEC50, pIC50: −log10 of the molar value. Values joined by “and” are separate entries in the source; they are usually repeats but may differ in a detail not shown here. Identical values can stand only once. Like-named read-outs stand apart in the source and are kept apart here.

Legend:
PLpro = PLpro (Severe acute respiratory syndrome coronavirus 2, UniProt P0DTD1); assay: Protease selectivity panel: PLpro; type: biochemical; details: SARS-CoV-2 recombinant
ACE2 = ACE2 (Homo sapiens, UniProt Q9BYF1); assay: biochemical
ACE2, sequence (Q9BYF1 18-740): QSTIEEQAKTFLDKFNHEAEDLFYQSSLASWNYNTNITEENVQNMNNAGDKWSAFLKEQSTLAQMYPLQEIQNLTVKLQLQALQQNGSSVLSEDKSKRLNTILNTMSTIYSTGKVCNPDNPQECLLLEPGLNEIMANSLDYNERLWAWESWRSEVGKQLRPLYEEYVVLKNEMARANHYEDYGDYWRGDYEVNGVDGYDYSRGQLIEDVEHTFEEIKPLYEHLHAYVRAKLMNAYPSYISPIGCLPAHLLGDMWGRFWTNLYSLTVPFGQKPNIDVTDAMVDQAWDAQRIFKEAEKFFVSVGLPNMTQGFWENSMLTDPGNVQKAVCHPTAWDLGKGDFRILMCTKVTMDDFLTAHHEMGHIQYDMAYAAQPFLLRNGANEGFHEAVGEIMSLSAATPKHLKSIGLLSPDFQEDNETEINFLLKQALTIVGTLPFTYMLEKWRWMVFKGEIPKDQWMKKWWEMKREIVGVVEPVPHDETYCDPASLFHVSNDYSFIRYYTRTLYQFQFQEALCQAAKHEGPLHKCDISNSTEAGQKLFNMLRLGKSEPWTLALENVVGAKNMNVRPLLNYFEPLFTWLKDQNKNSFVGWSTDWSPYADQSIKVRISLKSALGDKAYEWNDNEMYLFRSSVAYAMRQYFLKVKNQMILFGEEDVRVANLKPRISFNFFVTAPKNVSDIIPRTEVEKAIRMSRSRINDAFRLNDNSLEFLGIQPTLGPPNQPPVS

SARS-CoV-2 [1] = assay: microbe, parasite or virus in culture; type: cell-based; details: for pEC50: Severe acute respiratory syndrome coronavirus 2, 24 h, read-out: SARS-CoV-2 Huh-7ACE2 EC50
Cathepsin B = Cathepsin B (Homo sapiens, UniProt P07858); assay: biochemical
Elastase = Elastase (Homo sapiens, UniProt P08246); assay: biochemical
Elastase, sequence (P08246 30-267): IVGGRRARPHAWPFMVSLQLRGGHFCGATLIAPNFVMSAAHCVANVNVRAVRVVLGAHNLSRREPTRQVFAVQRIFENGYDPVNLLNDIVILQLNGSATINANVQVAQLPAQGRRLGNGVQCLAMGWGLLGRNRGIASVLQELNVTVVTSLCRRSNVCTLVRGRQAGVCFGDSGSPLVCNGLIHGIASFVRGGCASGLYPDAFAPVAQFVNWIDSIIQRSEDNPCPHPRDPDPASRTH

Cathepsin K = Cathepsin K (Homo sapiens, UniProt P43235); assay: Protease selectivity panel: Cathepsin K
Cathepsin K, sequence (P43235 115-329): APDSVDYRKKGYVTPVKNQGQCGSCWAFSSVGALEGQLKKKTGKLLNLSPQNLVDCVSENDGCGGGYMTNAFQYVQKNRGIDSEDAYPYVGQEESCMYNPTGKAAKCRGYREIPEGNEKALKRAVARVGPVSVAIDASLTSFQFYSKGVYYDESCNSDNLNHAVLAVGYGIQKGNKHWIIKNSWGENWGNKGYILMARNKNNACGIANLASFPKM

SARS-CoV-2 [2] = assay: microbe, parasite or virus in culture; details: Severe acute respiratory syndrome coronavirus 2, Caco-2, 72 h, read-out: SARS-CoV-2 Caco-2 EC90
SARS-CoV-2 3CL protease [3] = target: T1, SARS-CoV-2 3CL protease (Severe acute respiratory syndrome coronavirus 2, UniProt P0DTD1); assay: biochemical
[4] = tested on: SARS coronavirus (strain: Urbani); assay: organism not typed; type: cell-based, SARS-CoV
[5] = tested on: Human coronavirus beta (strain: OC43); assay: organism not typed; type: cell-based, HCoV-OC43; details: Huh-7, read-out: EC50, human coronavirus OC43
SARS-CoV-2 [6] = assay: cell-based
Thrombin a = Thrombin a (Homo sapiens, UniProt P00734); assay: biochemical
Trypsin = Trypsin (Bos taurus, UniProt P00760); assay: Protease selectivity panel: Trypsin; type: biochemical; details: Bovine pancreas
Trypsin, sequence (P00760 24-246): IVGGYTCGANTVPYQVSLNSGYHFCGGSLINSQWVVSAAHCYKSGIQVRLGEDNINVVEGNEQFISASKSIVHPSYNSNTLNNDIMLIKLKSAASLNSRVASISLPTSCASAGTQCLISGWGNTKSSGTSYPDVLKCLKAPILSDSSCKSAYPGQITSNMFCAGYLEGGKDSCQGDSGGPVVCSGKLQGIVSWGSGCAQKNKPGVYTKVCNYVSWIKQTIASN

Furin = Furin (Homo sapiens, UniProt P09958); assay: biochemical
Furin, sequence (P09958 108-715): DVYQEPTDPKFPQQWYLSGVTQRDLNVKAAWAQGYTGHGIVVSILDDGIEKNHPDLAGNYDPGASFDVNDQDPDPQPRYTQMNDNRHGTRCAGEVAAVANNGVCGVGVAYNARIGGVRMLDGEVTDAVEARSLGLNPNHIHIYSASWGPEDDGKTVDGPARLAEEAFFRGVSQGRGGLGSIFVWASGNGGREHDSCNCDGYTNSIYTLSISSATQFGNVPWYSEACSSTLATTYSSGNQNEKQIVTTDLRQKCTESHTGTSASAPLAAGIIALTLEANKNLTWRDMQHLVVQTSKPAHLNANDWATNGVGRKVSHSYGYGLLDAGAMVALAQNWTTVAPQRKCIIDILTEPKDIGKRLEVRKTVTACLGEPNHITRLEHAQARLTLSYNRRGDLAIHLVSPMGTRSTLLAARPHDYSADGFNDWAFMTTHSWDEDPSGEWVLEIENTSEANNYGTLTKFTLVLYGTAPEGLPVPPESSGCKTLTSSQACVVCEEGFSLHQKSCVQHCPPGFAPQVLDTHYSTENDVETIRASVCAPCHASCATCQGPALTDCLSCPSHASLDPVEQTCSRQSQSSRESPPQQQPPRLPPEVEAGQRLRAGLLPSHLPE

Cathepsin L [7] = target: T2, Cathepsin L (Homo sapiens, UniProt P07711); assay: Protease selectivity panel: Cathepsin L; type: biochemical
T2 construct: Human liver; from tissue; host or cells: human liver
T2 sequence (P07711 114-333): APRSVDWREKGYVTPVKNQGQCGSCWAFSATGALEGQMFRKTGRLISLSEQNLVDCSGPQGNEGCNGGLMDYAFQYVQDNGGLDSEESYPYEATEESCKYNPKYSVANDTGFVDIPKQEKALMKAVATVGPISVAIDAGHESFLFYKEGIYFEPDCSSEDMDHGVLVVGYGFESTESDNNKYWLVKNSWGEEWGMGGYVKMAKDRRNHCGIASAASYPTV

SARS-CoV-2 [8] = assay: microbe, parasite or virus in culture; type: cell-based
Urokinase = Urokinase (Homo sapiens, UniProt P00749); assay: biochemical
Cathepsin S = Cathepsin S (Homo sapiens, UniProt P25774); assay: Protease selectivity panel: Cathepsin S
Cathepsin S, sequence (P25774 115-331): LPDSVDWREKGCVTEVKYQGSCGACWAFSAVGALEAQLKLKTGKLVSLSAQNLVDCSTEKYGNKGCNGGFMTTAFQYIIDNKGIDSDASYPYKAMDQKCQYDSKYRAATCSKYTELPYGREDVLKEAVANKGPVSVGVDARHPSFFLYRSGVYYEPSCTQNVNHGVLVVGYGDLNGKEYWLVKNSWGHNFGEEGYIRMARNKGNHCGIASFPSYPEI

ACE1 = ACE1 (Homo sapiens, UniProt P12821); assay: biochemical
ACE1, sequence (P12821 30-1261): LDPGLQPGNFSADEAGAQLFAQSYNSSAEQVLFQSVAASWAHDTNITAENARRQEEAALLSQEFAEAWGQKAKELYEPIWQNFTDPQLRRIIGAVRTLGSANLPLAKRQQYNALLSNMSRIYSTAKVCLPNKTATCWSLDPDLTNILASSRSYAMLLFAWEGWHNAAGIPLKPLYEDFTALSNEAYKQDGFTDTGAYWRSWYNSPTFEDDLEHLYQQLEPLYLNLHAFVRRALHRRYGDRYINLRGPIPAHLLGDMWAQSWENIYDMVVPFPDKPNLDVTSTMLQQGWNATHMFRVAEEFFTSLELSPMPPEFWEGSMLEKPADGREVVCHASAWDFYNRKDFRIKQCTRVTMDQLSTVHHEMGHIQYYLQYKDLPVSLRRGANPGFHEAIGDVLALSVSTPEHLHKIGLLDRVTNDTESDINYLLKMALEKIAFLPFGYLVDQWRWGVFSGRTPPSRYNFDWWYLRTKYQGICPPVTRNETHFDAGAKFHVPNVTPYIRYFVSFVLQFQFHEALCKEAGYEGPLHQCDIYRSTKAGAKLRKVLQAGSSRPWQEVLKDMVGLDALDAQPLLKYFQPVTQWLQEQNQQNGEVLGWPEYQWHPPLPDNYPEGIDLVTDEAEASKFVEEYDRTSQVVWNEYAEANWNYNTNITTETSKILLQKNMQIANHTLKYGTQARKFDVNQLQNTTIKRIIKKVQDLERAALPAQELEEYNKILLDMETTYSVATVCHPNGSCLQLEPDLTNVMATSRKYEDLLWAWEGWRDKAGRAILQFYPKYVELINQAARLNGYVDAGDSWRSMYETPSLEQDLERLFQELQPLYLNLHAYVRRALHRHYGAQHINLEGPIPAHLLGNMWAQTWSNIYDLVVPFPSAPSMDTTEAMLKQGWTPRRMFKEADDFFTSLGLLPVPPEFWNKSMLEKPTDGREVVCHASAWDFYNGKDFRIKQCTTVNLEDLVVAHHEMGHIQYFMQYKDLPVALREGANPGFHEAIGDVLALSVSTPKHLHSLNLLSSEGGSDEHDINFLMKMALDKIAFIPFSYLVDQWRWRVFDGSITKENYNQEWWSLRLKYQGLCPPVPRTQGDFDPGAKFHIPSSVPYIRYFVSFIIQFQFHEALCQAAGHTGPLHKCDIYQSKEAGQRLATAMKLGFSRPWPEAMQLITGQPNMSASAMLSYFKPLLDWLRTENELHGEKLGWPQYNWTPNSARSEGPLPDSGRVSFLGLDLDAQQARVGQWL

TMPRSS2 = TMPRSS2 (Homo sapiens, UniProt O15393); assay: biochemical
TMPRSS2, sequence (O15393 106-492): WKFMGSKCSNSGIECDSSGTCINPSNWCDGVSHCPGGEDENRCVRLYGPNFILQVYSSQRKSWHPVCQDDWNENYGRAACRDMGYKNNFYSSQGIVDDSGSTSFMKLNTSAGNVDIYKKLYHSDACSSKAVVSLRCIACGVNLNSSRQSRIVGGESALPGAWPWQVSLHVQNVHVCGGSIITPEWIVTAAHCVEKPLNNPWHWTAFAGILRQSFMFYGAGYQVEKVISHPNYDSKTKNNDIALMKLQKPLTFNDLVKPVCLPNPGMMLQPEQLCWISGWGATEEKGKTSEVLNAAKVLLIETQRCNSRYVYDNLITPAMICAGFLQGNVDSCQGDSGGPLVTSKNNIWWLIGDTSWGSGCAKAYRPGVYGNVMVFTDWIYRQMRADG

Factor Xa = Factor Xa (Homo sapiens, UniProt P00742); assay: biochemical
Factor Xa, sequence (P00742 235-488): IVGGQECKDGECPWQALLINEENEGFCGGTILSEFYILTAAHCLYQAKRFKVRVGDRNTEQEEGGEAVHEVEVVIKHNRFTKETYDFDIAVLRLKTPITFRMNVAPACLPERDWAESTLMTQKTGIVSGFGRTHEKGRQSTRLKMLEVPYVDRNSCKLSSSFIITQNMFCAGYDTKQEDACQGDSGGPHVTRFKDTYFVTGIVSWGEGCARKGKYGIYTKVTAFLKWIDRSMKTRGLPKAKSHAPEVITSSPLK
Factor Xa, sequence (P00742 41-179): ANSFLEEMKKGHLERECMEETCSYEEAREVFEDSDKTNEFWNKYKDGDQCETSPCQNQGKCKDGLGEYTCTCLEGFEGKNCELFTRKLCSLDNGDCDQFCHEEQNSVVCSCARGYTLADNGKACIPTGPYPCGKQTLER

SARS-CoV-2 3CL protease [9] = target: T1, SARS-CoV-2 3CL protease; assay: biochemical; remark: listed apart in the source
Caspase 8 = Caspase 8 (Homo sapiens, UniProt Q14790); assay: biochemical
Caspase 8, sequence (Q14790 217-479): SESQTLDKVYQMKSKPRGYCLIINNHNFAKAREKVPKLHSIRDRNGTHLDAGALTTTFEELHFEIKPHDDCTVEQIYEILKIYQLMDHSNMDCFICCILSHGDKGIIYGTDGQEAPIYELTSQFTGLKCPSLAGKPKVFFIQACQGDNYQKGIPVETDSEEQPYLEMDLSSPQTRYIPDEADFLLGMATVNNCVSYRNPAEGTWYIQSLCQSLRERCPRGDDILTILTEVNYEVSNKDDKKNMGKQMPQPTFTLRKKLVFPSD

[10] = tested on: Human coronavirus alpha (strain: 229E); assay: organism not typed; type: cell-based, HCoV-229E; details: Huh-7, read-out: EC50, human coronavirus 229E
[11] = tested on: Influenza A H1N1 (strain: California/07/2009); assay: microbe, parasite or virus in culture; type: cell-based
in vitro [12] = assay: in vitro
MMP 1 = MMP 1 (Homo sapiens, UniProt P03956); assay: biochemical
MMP 1, sequence (P03956 100-268): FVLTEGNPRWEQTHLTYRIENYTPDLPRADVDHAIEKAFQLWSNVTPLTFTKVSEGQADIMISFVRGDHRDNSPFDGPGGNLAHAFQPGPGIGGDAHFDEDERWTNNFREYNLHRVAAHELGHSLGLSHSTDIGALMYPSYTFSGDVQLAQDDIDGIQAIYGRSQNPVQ

SARS-CoV-2 [13] = assay: microbe, parasite or virus in culture; type: cell-based; details: Severe acute respiratory syndrome coronavirus 2, read-out: SARS-CoV-2 EC50
in vitro [14] = details: human, microsomes, pH 7.4
in vitro [15] = details: human, plasma
physchem = details: aqueous buffer, kinetic from dmso stock
Cathepsin L [16] = target: T2, Cathepsin L; details: read-out: IC50 on human cathepsin L; cited from earlier work
in vitro [17] = details: CD-1, mouse, microsomes, pH 7.4
human chymotrypsin = assay: Chymotrypsin activity assay (Panc-1 cell lysate); type: biochemical
in vitro [18] = details: CD-1, mouse, plasma
SARS-CoV-2 [19] = details: read-out: SARS-CoV-2 antiviral EC50; cited from earlier work
SARS-CoV-2 3CL protease [20] = target: T1, SARS-CoV-2 3CL protease; type: binding
SARS-CoV-2 3CL protease [21] = target: T1, SARS-CoV-2 3CL protease; type: binding; remark: listed apart in the source
[22] = Severe acute respiratory syndrome coronavirus 2, Vero C1008, read-out: SARS-CoV-2 Vero E6 EC50
[23] = Severe acute respiratory syndrome coronavirus 2, Vero C1008, 72 h, read-out: EC50, inhibition of SARS-CoV-2 viral replication

CC(C)C[C@H](NC(=O)OCc1ccccc1Cl)C(=O)N[C@@H](C[C@@H]1CCNC1=O)C(O)S(=O)(=O)O (stereo partly shown) [EB54]
pIC50 (PLpro): < 4.00 | pIC50 (ACE2): < 4.00 | inhibition of SARS-CoV-2 (Figure s17b dose-response, replicate values) (SARS-CoV-2 [1]): 99.8698 and 98.0961 and 101.644 and 87.6327 and 101.522 and 73.7431 and 78.1084 and 77.7143 and 78.5024 and 57.3714 and 60.2928 and 54.45 and 31.9222 and 32.9312 and 30.9133 and 24.3408 and 28.9565 and 19.7251 and 10.4228 and 9.535 and 11.3102 | pEC50 (SARS-CoV-2 [1]): 8.30 | pIC50 (Cathepsin B): 6.46 | pIC50 (Elastase): < 4.00 | pIC50 (Cathepsin K): 7.70 | EC90 (SARS-CoV-2 [2]): 190 nM | observed inactivation rate vs compound concentration (Figure S19, replicate values) (SARS-CoV-2 3CL protease [3]): 0.0534 and -0.00333 and 0.0463 and 0.0575 and 0.0117 and 0.0408 and 0.0199 and 0.0198 and 0.0352 and 0.0468 and 0.0351 and 0.0076 | kinact/KI (SARS-CoV-2 3CL protease [3]; read-out: SARS-CoV-2 3CLpro kinact/KI): 88300 M⁻¹ s⁻¹ | pEC50 ([4]; Vero 76, read-out: SARS-CoV Vero 76 EC50): > 5.52 | pEC50 ([4]; read-out: SARS-CoV Vero 76 EC50): 5.62 | pEC50 [5]: > 7.00 | pEC50 (SARS-CoV-2 [6]): 5.92 | pIC50 (Thrombin a): < 4.00 | pIC50 (Trypsin): < 4.00 | pIC50 (Furin): < 4.00 | pIC50 (Cathepsin L [7]; Human liver, substrate 1 (Z-FR-AMC), […] Cathepsin L, read-out: IC50): 9.00 | pIC50 (Cathepsin L [7]; Human liver, substrate 2 (MCA-PLGL-Dap(Dnp)-AR-NH2), 0.5 nM Cathepsin L, read-out: IC50): 8.22 | pIC50 (Cathepsin L [7]; read-out: IC50 on human cathepsin L): 9.00 | pEC50 (SARS-CoV-2 [8]; [22]): 5.70 | pIC50 (Urokinase): < 4.00 | pIC50 (Cathepsin S): 8.22 | pIC50 (ACE1): < 4.00 | pIC50 (TMPRSS2): < 4.00 | pIC50 (Factor Xa): < 4.00 | pIC50 (SARS-CoV-2 3CL protease [9]; 20 nM protease, read-out: SARS-CoV-2 3CLpro IC50): 7.54 | normalized activity, dose-response curve (Figure S16) (SARS-CoV-2 3CL protease [9]; Concentration of inhibitor (nM) 0.19382): 97.3415 and 94.0287 | normalized activity, dose-response curve (Figure S16) (SARS-CoV-2 3CL protease [9]; Concentration of inhibitor (nM) 0.49485): 94.642 and 94.4552 | normalized activity, dose-response curve (Figure S16) (SARS-CoV-2 3CL protease [9]; Concentration of inhibitor (nM) 0.79588): 92.0244 and 86.0411 | normalized activity, dose-response curve (Figure S16) (SARS-CoV-2 3CL protease [9]; Concentration of inhibitor (nM) 1.09691): 76.1141 and 67.8169 | normalized activity, dose-response curve (Figure S16) (SARS-CoV-2 3CL protease [9]; Concentration of inhibitor (nM) 1.39794): 59.5493 and 51.609 | normalized activity, dose-response curve (Figure S16) (SARS-CoV-2 3CL protease [9]; Concentration of inhibitor (nM) 1.69897): 35.2953 and 26.9095 | normalized activity, dose-response curve (Figure S16) (SARS-CoV-2 3CL protease [9]; Concentration of inhibitor (nM) 2.30103): 1.552 and 1.745 | normalized activity, dose-response curve (Figure S16) (SARS-CoV-2 3CL protease [9]; Concentration of inhibitor (nM) 2.60206): 1.143 and 0.9691 | normalized activity, dose-response curve (Figure S16) (SARS-CoV-2 3CL protease [9]; Concentration of inhibitor (nM) -0.10721): 100.286 and 100.194 | normalized activity, dose-response curve (Figure S16) (SARS-CoV-2 3CL protease [9]; Concentration of inhibitor (nM) -0.40824): 100 | pIC50 (Caspase 8): 4.28 | pEC50 [10]: > 7.00 | effect on replication of Influenza H1N1 (in words) [11]: no effect was observed | pEC50 ([11]; Influenza A virus, H1N1, MDCK, read-out: Influenza A (H1N1) MDCK EC50): < 4.00 | CC50 (in vitro [12]): > 100000 nM | pIC50 (MMP 1): < 4.00 | pEC50 (SARS-CoV-2 [13]): 7.55

CC(C)CC(NC(=O)OCc1ccccc1)C(=O)NC(CC1CCNC1=O)C(O)S(=O)(=O)O (stereo not shown) [GC376, reference compound]
half-life (in vitro [14]): > 80 min | pEC50 (SARS-CoV-2 [1]): 7.29 | concentrations at which turbidity was observed: 25000 to 200000 µM | half-life (in vitro [15]): > 240 min | solubility (physchem): ≤ 1000 µM | pIC50 (Cathepsin L [16]): 9.48 | pEC50 (SARS-CoV-2 [8]; [23]): 5.22 | pEC50 (SARS-CoV-2 [8]; [22]): 5.05 | half-life (in vitro [17]): > 80 min | Normalized chymotrypsin activity (human chymotrypsin): 1.05 and 0.8698 and 0.9664 | Protease activity in cell lysate normalised to DMSO (Figure S22D) (human chymotrypsin): 1.05 and 0.8698 and 0.9664 | pEC50 (SARS-CoV-2 [13]): 6.84 | half-life (in vitro [18]): > 240 min

CC(C)(C)[C@H](NC(=O)C(F)(F)F)C(=O)N1C[C@H]2[C@@H]([C@H]1C(=O)N[C@H](C#N)C[C@@H]1CCNC1=O)C2(C)C [PF-07321332]
pEC50 (SARS-CoV-2 [19]): 7.11

CCOC(=O)C=CC(CC1CCNC1=O)NC(=O)C(CC(C)C)NC(=O)C(NC(=O)OCc1ccccc1)C(C)OC(C)(C)C (stereo not shown) [compound 4]
half-life (in vitro [14]): 19 min | binding stoichiometry (SARS-CoV-2 3CL protease [20]): 0.97 ± 0.06 | concentration above which precipitates formed: above 100 µM | half-life (in vitro [15]): > 240 min | binding to 3CL protease by mass spectrometry (in words) (SARS-CoV-2 3CL protease [21]): one-to-one complex | pEC50 (SARS-CoV-2 [8]; [23]): 6.10 | Normalized SARS-CoV-2 3CL protease activity (SARS-CoV-2 3CL protease [9]): 0.006645 and 0.009809 and 0.01123 | pIC50 (SARS-CoV-2 3CL protease [9]; IC50): 6.91 | half-life (in vitro [17]): 7.3 min | Normalized chymotrypsin activity (human chymotrypsin): 0.9372 and 0.8587 and 0.9322 | half-life (in vitro [18]): 10 min

PF-00835231
pEC50 (SARS-CoV-2 [19]): 6.66
